# “Also recorded” adds a separate entry of the source.
# Legend:
# [1] = system: rat liver microsomes (RLMs); experiment: Inhibitory effect of baohuoside I on tofacitinib metabolism in RLMs; format: in vitro ADME; conditions: Lineweaver-Burk plot
# [2] = system: rat liver microsomes (RLMs); conditions: tofacitinib 1-400 μM, 0.5 mg/mL RLMs, 1 mM NADPH, 37 °C, 30 min
# [3] = cited from earlier work
Structure (SMILES),inhibition mechanism on tofacitinib metabolism [1],Km [2],Vmax [2],plasma protein binding [3]
COc1ccc(-c2oc3c(CC=C(C)C)c(O)cc(O)c3c(=O)c2O[C@@H]2O[C@@H](C)[C@H](O)[C@@H](O)[C@H]2O)cc1 [Baohuoside I],a mixture of non-competitive and competitive inhibition; also recorded: a combination of non-competitive and competitive inhibition,,,
C[C@@H]1CCN(C(=O)CC#N)C[C@@H]1N(C)c1ncnc2[nH]ccc12 [Tofacitinib],,39.9 µM,4.2824 ng/min/mg,about 40%
